Results: publication PMC4604621, “Cytotoxicity, nitric oxide and acetylcholinesterase inhibitory activity of three limonoids isolated from Trichilia welwitschii (Meliaceae)” (Biological Research, 2015)
Values after ≈ are worked out from the molar mass of the structure shown. Like-named read-outs stand apart in the source and are kept apart here.

How the values were obtained:
[1] = test system: nitric oxide production from LPS-activated macrophages; conditions: read-out: IC50 against nitric oxide production; cited from earlier work
[2] = test system: murine macrophage RAW 264.7; assay: MTT cytotoxicity assay on RAW 264.7 cells; type: cell-based; conditions: Mus musculus
Protocol: (§1) Cells lines including human monocytic THP-1, murine macrophage RAW 264.7 and the Vero monkey kidney cell lines were obtained from the American Type Culture Collection (Rockville, MD, USA). They were maintained in DMEM supplemented with 10 % fetal calf serum (FCS) and 1 % penicillin/streptomycin/fongizone (PSF) under standard cell culture conditions at 37 °C and 5 % CO2 in a humidified environment.
(§2) The cytotoxicity of compounds was determined by the 3-[4,5-dimethylthiazol-2-yl]-2,5-diphenyltetrazolium (MTT) assay as previously described. The selectivity index (SI) values were calculated by dividing cytotoxicity LC50 values of normal Vero cells by the LC50 of cancer cells in the same units.

human monocytic THP-1 = assay: MTT cytotoxicity assay on THP-1 cells; type: cell-based
Protocol: as §1, §2

[3] = MTT cytotoxicity assay on Vero cells; type: cell-based; conditions: monkey
Protocol: as §1, §2

[4] = molecular target: T1, acetylcholinesterase (AChE) enzyme from electric eels (Electrophorus electricus, UniProt O42275); assay: biochemical; conditions: for inhibition at 6.25 µg/mL / inhibition at 12.5 µg/mL / inhibition at 25 µg/mL / inhibition at 50 µg/mL: read-out: % AChE inhibition; for IC50: read-out: AChE inhibition IC50 (converted)
T1 construct: purchased Sigma (Germany) type VI-S lyophilized powder (catalogue number not given)
Protocol: Inhibition of acetylcholinesterase activity was determined using Ellman’s colorimetric method with slight modifications. […] Then, AChE (0.2 U/mL) was added to the wells and the absorbance was determined spectrophotometrically (BioTek Synergy microplate reader) at 405 nm. Distilled water was used as negative control. […] The IC50 values of samples leading to 50 % inhibition were calculated by plotting the percentage of inhibition against the concentrations.

RAW 264.7 macrophages = assay: Cell viability of LPS-activated RAW 264.7 macrophages (MTT); type: cell-based, murine; conditions: Fig. 1b, at the concentration leading to effective inhibition of NO production
Protocol: To determine whether the observed nitric oxide inhibition was not due to cytotoxic effects, MTT assay was also performed on the macrophage cells as previously described.

[5] = test system: nitric oxide production in LPS-stimulated RAW 264.7 macrophages; assay: Nitric oxide production in LPS-activated RAW 264.7 macrophages (Griess reagent); type: cell-based, murine; conditions: 0.5 µg/mL compound, 1 µg/mL LPS, 24 h
Protocol: Fig. 1 Inhibitory activity of three limonoids isolated from Trichilia welwitschii on nitrix oxide production. The RAW 264.7 macrophages cells were seeded in 96 well-microtitre plates and were activated by incubation in medium containing 1 µg/mL LPS alone (control) or lipopolysaccharide with different concentrations of the samples dissolved in DMSO. Nitric oxide released from macrophages was determined by measuring the nitrite concentration in culture supernatant using the Griess reagent. The concentrations of nitrite were derived from regression analysis using serial dilutions of sodium nitrite as a standard. Percentage inhibition was calculated based on the ability of compounds to inhibit nitric oxide formation by cells compared with the control (cells in media without compounds), which was considered as 0 % inhibition.
The RAW 264.7 macrophages cells were seeded in 96 well-microtitre plates and were activated by incubation in medium containing 1 µg/mL LPS alone (control) or lipopolysaccharide with different concentrations of the samples dissolved in DMSO. […]
Nitric oxide released from macrophages was determined by measuring the nitrite concentration in culture supernatant using the Griess reagent. […] The absorbance of the resultant solutions was determined on a BioTek Synergy microplate reader after 10 min at 550 nm. […]

[6] = RAW264.7, RAW 264.7 cells, MTT, read-out: Cytotoxicity LC50 RAW 264.7
[7] = Vero kidney cells, Vero cells, MTT, read-out: Cytotoxicity LC50 Vero
[8] = human, mouse, THP-1 and RAW 264.7 cells (range over the cell lines), range over the cell lines tested (Vero, THP-1, RAW 264.7), read-out: LC50 values (range over the cell lines)
[9] = RAW264.7, read-out: Cytotoxicity LC50 RAW 264.7
[10] = THP-1, read-out: Cytotoxicity LC50 THP-1

T1 sequence (O42275 24-633): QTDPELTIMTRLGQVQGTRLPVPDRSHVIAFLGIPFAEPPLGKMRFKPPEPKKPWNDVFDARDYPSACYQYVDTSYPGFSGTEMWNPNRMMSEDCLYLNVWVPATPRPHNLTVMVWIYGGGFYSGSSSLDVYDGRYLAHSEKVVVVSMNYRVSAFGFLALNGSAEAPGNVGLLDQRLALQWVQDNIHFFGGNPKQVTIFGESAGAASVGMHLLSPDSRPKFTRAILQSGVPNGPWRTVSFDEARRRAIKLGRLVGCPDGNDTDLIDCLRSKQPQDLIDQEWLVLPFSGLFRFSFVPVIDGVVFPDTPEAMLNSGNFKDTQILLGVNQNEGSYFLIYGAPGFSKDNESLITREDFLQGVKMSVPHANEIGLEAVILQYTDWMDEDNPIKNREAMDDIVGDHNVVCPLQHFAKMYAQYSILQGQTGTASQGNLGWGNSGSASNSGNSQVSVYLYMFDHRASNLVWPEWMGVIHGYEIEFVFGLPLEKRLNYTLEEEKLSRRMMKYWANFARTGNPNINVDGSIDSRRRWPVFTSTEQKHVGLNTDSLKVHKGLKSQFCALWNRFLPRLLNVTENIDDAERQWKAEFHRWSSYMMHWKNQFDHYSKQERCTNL

SMILES	IC50 [1] [µM]	CC50 [2, 6] [µg/mL]	CC50 (human monocytic THP-1; THP-1 cells, MTT, read-out: Cytotoxicity LC50 THP-1) [µg/mL]	CC50 [3, 7] [µg/mL]	CC50 [3, 8] [µg/mL]	CC50 [2, 9] [µg/mL]	inhibition at 6.25 µg/mL [4] [%]	inhibition at 12.5 µg/mL [4] [%]	inhibition at 25 µg/mL [4] [%]	inhibition at 50 µg/mL [4] [%]	IC50 [4] [µM]	Cytotoxicity against RAW 264.7 macrophages by MTT assay (RAW 264.7 macrophages)	CC50 (human monocytic THP-1; [10]) [µg/mL]	Amount of nitric oxide released [5] [µM]
CC[C@H](C)C(=O)O[C@H]1[C@@]23O[C@]4(O)[C@@](C)([C@@H](CC(=O)OC)C(C)(C)[C@H](OC(=O)C(C)C)[C@]14O)[C@H]2CC[C@]1(C)[C@H]3CC(=O)O[C@H]1c1ccoc1 [2-hydroxyxylorumphiin F]	24.5													
COc1ccc(C[C@H](N)C(=O)N[C@H]2[C@@H](O)[C@H](n3cnc4c(N(C)C)ncnc43)O[C@@H]2CO)cc1 [Puromycin, reference compound]		1.15 ± 0.17 (≈ 2.44 µM)	0.4 ± 0.02 (≈ 0.848 µM)	5.32 ± 0.9 (≈ 11.3 µM)	1.15 to 5.32 (≈ 2.44 to 11.3 µM)									
C=C1[C@@]23O[C@@H]2C[C@@H](c2ccoc2)[C@]3(C)[C@@H](OC(=O)C(O)C(C)CC)[C@H](C(=O)O)[C@]1(C)[C@](C)(C1CC(=O)O[C@]1(C)CO)[C@H](CC(=O)OC)OC(C)=O (stereo partly drawn) [Compound 1, trichilia lactone D5]				89.2 ± 5 (≈ 124 µM)		23.6 ± 5.77 (≈ 32.8 µM)	28 ± 6.56	18 ± 8.89	71.7 ± 6.03	94.3 ± 8.15	26.6	slight toxic effect	81.2 ± 6.38 (≈ 113 µM)	
C=C1[C@@]23O[C@@H]2C[C@@H](c2ccoc2)[C@]3(C)[C@@H](OC(=O)C(O)C(C)CC)[C@@H]2O[C@H]3CC(=O)O[C@]4(C)COC(=O)CC4[C@@]3(C)[C@]12C (stereo partly drawn) [Compound 3, dregeanin DM4]				75.8 ± 1.85 (≈ 127 µM)		61.9 ± 4.14 (≈ 103 µM)	30.3 ± 3.51	31.7 ± 5.2	70.7 ± 3.5	87 ± 8.74	76.3		84.5 ± 5.81 (≈ 141 µM)	2.93
C=C1[C@@]2(O)C(=O)C[C@@H](c3ccoc3)[C@]2(C)[C@@H](OC(=O)C(O)C(C)CC)[C@@H]2O[C@H]3CC(=O)O[C@]4(C)COC(=O)CC4[C@@]3(C)[C@]12C (stereo partly drawn) [Compound 2, rohituka 3]				85.2 ± 6.31 (≈ 139 µM)		65.7 ± 3.64 (≈ 107 µM)	14 ± 6	47.3 ± 2.08	67 ± 4.36	82.7 ± 7.04	55.6		81.2 ± 4.04 (≈ 132 µM)	2.97
COc1cccc2c1C(=O)c1c(O)c3c(c(O)c1C2=O)C[C@@](O)(C(=O)CO)C[C@@H]3O[C@H]1C[C@H](N)[C@H](O)[C@H](C)O1 [Doxorubicin]		1.06 ± 0.65 (≈ 1.95 µM)		9.35 ± 0.66 (≈ 17.2 µM)	1.06 to 9.35 (≈ 1.95 to 17.2 µM)									
CC[C@H](C)C(=O)O[C@H]1C(C)(C)[C@H](CC(=O)OC)[C@@]2(C)[C@H]3CC[C@]4(C)C(=CC(=O)O[C@H]4c4ccoc4)[C@]34O[C@@]2(O)[C@@]1(O)[C@H]4OC(=O)[C@@H](C)CC [xylorumphiin I]	31.3													
